In patent publication US20250171438A1 (Agios Pharmaceuticals, Inc., priority 2022, published 2025) one finds AC50 data, which are given here for 38 molecules.

A value given as a limit tells only on which side of the number the result lay.

One assay concerns the target T1, human PAH with the R408W mutation (Homo sapiens, UniProt P00439, R408W).
T1 construct: expressed in transfected cells
T1 sequence (P00439 1-452 R408W): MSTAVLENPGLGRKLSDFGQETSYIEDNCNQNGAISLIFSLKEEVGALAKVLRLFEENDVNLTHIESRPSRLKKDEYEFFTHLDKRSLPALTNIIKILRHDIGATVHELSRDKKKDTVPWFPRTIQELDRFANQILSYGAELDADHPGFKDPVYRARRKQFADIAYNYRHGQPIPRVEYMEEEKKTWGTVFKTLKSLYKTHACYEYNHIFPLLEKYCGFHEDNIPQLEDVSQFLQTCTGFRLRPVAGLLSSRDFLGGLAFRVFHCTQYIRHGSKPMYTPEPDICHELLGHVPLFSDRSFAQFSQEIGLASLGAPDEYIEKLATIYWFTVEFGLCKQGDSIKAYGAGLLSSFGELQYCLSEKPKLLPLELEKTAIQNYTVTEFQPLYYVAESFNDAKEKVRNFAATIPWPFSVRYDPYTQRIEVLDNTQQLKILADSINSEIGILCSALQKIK
The experiment in a line: Cell Based Phenylalanine Flux Assay. To be noted: A375 cells expressing human R408W PAH; 24 hrs compound incubation; 13C-Tyrosine by LC-MS; average where tested multiple times; read-out: AC50.
For `O=C(c1cnn2cc(F)ccc12)N1CCc2[nH]cnc2[C@@H]1c1nc2cc(F)ccc2s1` [Example 1334, (R)-(4-(5-fluorobenzo[d]thiazol-2-yl)-6,7-dihydro-1H-imidazo[4,5-c]pyridin-5(4H)-yl)(6-fluoropyrazolo[1,5-a]pyridin-3-yl)methanone], the AC50 is > 5 µM.

On to `O=C(c1cnc(-c2ncccc2F)s1)N1CCc2[nH]cnc2[C@H]1c1nc2ccccc2s1` [Example 1373], for which the AC50 is < 0.5 µM.

For the molecule `O=C(c1nnc(-c2ccc(C(F)(F)F)cn2)o1)N1CCc2[nH]cnc2[C@@H]1c1nc2ccccc2s1` [Example 1829, (R)-(4-(benzo[d]thiazol-2-yl)-6,7-dihydro-1H-imidazo[4,5-c]pyridin-5(4H)-yl)(5-(5-(trifluoromethyl)pyridin-2-yl)-1,3,4-oxadiazol-2-yl)methanone], the AC50 is 1 to 5 µM.

As to `O=C(CCc1nccs1)N1CCc2nc[nH]c2[C@@H]1c1nc2ccccc2s1` [Example 1004, (R)-1-(4-(benzo[d]thiazol-2-yl)-6,7-dihydro-3H-imidazo[4,5-c]pyridin-5(4H)-yl)-3-(thiazol-2-yl)propan-1-one], the AC50 was in the range of 1 to 5 µM.

Take `O=C(CCc1nccs1)N1CCc2[nH]cnc2[C@H]1c1nccs1` [Example 2139, (S)-3-(thiazol-2-yl)-1-(4-(thiazol-2-yl)-6,7-dihydro-1H-imidazo[4,5-c]pyridin-5(4H)-yl)propan-1-one]: the AC50 was > 5 µM.

`Cc1ocnc1CC(=O)N1CCc2[nH]cnc2[C@H]1c1nc2ccccc2s1` [Example 1531]: the AC50 is < 0.5 µM.

As for `O=C(c1nnc(-c2ncccc2F)o1)N1CCc2[nH]cnc2[C@@H]1c1nc2c(F)cccc2s1` [Example 1901, (R)-(4-(4-fluorobenzo[d]thiazol-2-yl)-6,7-dihydro-1H-imidazo[4,5-c]pyridin-5(4H)-yl)(5-(3-fluoropyridin-2-yl)-1,3,4-oxadiazol-2-yl)methanone], the half-maximal activity concentration (AC50) is 0.5 to 1 µM.

In the case of `O=C(c1ncco1)N1CCc2[nH]cnc2[C@H]1c1nc2c(F)cccc2s1` [Example 1225, (S)-(4-(4-fluorobenzo[d]thiazol-2-yl)-6,7-dihydro-1H-imidazo[4,5-c]pyridin-5(4H)-yl)(oxazol-2-yl)methanone], the half-maximal activity concentration (AC50) was 0.5 to 1 µM.

In the case of `O=C(c1nnc(C2CC(F)(F)C2)o1)N1CCc2[nH]cnc2[C@@H]1c1nc2c(F)cccc2s1` [Example 1891, (R)-(5-(3,3-difluorocyclobutyl)-1,3,4-oxadiazol-2-yl)(4-(4-fluorobenzo[d]thiazol-2-yl)-6,7-dihydro-1H-imidazo[4,5-c]pyridin-5(4H)-yl)methanone], the AC50 fell in the range of 1 to 5 µM.

Consider `O=C(c1cnn2ccc(Cl)cc12)N1CCc2[nH]cnc2[C@@H]1c1nc2c(F)cccc2s1` [Example 1196, (R)-(5-chloropyrazolo[1,5-a]pyridin-3-yl)(4-(4-fluorobenzo[d]thiazol-2-yl)-6,7-dihydro-1H-imidazo[4,5-c]pyridin-5(4H)-yl)methanone], for which the AC50 fell in the range of 1 to 5 µM.

In the case of `O=C(c1ocnc1C1CC1)N1CC2(CC2)c2[nH]cnc2[C@H]1c1nc2ccccc2s1` [Example 1669, (S)-(4′-(benzo[d]thiazol-2-yl)spiro[cyclopropane-1,7′-imidazo[4,5-c]pyridin]-5′(1′H,4′H,6′H)-yl)(4-cyclopropyloxazol-5-yl)methanone], the AC50 was < 0.5 µM.

In the case of `Cn1nc(C(F)F)nc1C(=O)N1CCc2[nH]cnc2[C@@H]1c1nc2ccccc2s1` [Example 2172, (R)-(4-(benzo[d]thiazol-2-yl)-6,7-dihydro-1H-imidazo[4,5-c]pyridin-5(4H)-yl)(3-(difluoromethyl)-1-methyl-1H-1,2,4-triazol-5-yl)methanone], the AC50 is > 5 µM.

For the molecule `Cc1nnc(C(=O)N2CCc3[nH]cnc3[C@H]2c2nc3ccccc3s2)s1` [Example 1041], the AC50 lay within 1 to 5 µM.

Consider `O=C(c1nnc(-c2ccccn2)o1)N1CCc2[nH]cnc2[C@@H]1c1nc2cccc(F)c2s1` [Example 1717, (R)-(4-(7-fluorobenzo[d]thiazol-2-yl)-6,7-dihydro-1H-imidazo[4,5-c]pyridin-5(4H)-yl)(5-(pyridin-2-yl)-1,3,4-oxadiazol-2-yl)methanone], for which the AC50 was in the range of 0.5 to 1 µM.

As for `O=C(c1nc(Cl)cs1)N1CCc2[nH]cnc2[C@H]1c1nc2cccc(F)c2s1` [Example 1263], the AC50 was in the range of 1 to 5 µM.

As for `O=C(c1nnc(N2CCOCC2)o1)N1CCc2[nH]cnc2[C@H]1c1nc2ccccc2s1` [Example 1585], the AC50 lay in the range of 0.5 to 1 µM.

Consider `O=C(c1oc(-c2ccccn2)nc1C1CC1)N1CCc2[nH]cnc2[C@H]1c1nc2ccccc2s1` [Example 1515], for which the AC50 was < 0.5 µM.

With `Cn1nccc1-c1nnc(C(=O)N2CCc3[nH]cnc3[C@H]2c2nc3ccccc3s2)o1` [Example 1945], the AC50 was < 0.5 µM.

Take `CC(C)n1ncc(C(=O)N2CCc3[nH]cnc3[C@H]2c2nc3c(F)cccc3s2)c1Br` [Example 1953]: the concentration at half-maximal activity (AC50) was in the range of 0.5 to 1 µM.

With `O=C(c1cnn2cc(C3CC3)ccc12)N1CCc2[nH]cnc2[C@H]1c1nc2ccccc2s1` [Example 1191], the AC50 was in the range of 0.5 to 1 µM.

Take `Cc1nc(Br)c(C(=O)N2CCc3[nH]cnc3[C@H]2c2nc3c(F)cccc3s2)o1` [Example 1760]: the AC50 was < 0.5 µM.

Regarding `Cn1nccc1C(=O)N1CCc2[nH]cnc2[C@H]1c1nc2c(F)cccc2s1` [Example 1603], the AC50 was in the range of 1 to 5 µM.

For `CC(C)(O)c1ncc(C(=O)N2CCc3[nH]cnc3[C@H]2c2nc3ccccc3s2)o1` [Example 1448], the AC50 lay within 0.5 to 1 µM.

The assay is the same for the next values; noted with them: A375 cells expressing human R408W PAH; 24 hrs with compound; 13C-Tyrosine by LC-MS; average where tested multiple times; read-out: AC50.
As to `O=C(c1cnn2cc(CCc3ccccc3)ccc12)N1CCc2[nH]cnc2C1c1nc2ccccc2s1` (centres unmarked), the AC50 was 1 to 5 µM.

Regarding `Cc1nc(CCCN(C)C)oc1C(=O)N1CCc2[nH]cnc2C1c1nc2ccccc2s1` (centres unmarked), the AC50 is > 5 µM.

For `O=C(CCc1cncs1)N1CCc2[nH]cnc2[C@H]1c1nc2ccccc2[nH]1` [(S)-1-(4-(1H-benzo[d]imidazol-2-yl)-1,4,6,7-tetrahydro-5H-imidazo[4,5-c]pyridin-5-yl)-3-(thiazol-5-yl)propan-1-one], the AC50 is > 5 µM.

Turning to `O=C(c1cnc[nH]1)N1CCc2[nH]cnc2C1c1nc2ccccc2s1` (centres unmarked), the AC50 was > 5 µM.

Regarding `Cc1nnc(C(=O)N2CCc3[nH]cnc3[C@H]2c2nc3cc(Br)ccc3[nH]2)s1` (single isomer, unassigned), the AC50 lay in the range of 1 to 5 µM.

For the molecule `O=C(Cc1nccs1)N1CCc2[nH]cnc2C1c1nc2ccc(Br)cc2s1` (centres unmarked), the AC50 was > 5 µM.

Turning to `Cn1nc(C(C)(C)O)cc1C(=O)N1CCc2[nH]cnc2C1c1nc2c(F)cccc2s1` (centres unmarked), the AC50 is > 5 µM.

As to `Cc1nnc(C(=O)N2CC(C)c3[nH]cnc3C2c2nc3ccccc3s2)o1` (centres unmarked), the AC50 was > 5 µM.

Consider `CC1CN(C(=O)c2cnn3cc(CN(C)C)ccc23)C(c2nc3ccccc3s2)c2nc[nH]c21` (centres unmarked), for which the AC50 is > 5 µM.

Turning to `Cn1nc(C2CC2)cc1C(=O)N1CCc2[nH]cnc2C1c1nc2c(F)cccc2s1` (centres unmarked), the AC50 was in the range of 1 to 5 µM.

Consider `Cn1ncnc1C(=O)N1CCc2[nH]cnc2[C@@H]1c1nc2c(F)cccc2s1` (single isomer, unassigned), for which the AC50 is > 5 µM.

Take `O=C(Cc1cnn2ccccc12)N1CCc2[nH]cnc2C1c1nc2ccccc2s1` (centres unmarked): the AC50 is > 5 µM.

Turning to `O=C(c1cnn2cc(Cl)ccc12)N1CCc2[nH]cnc2C1c1nc2ccc(F)cc2s1` (centres unmarked), the AC50 lay in the range of 1 to 5 µM.

`O=C(c1cnn2cc(Br)ccc12)N1CCc2[nH]cnc2C1c1nc2ccc(F)cc2s1` (centres unmarked): the AC50 lay in the range of 1 to 5 µM.

On to `Cc1nc(C(=O)N2CCc3[nH]cnc3C2c2nc3ccccc3s2)n(C)n1` (centres unmarked), for which the AC50 was > 5 µM.

One may read the AC50 as the midpoint of the concentration-response curve, whichever way the signal moves.
